The values that follow are results of earlier work, collected in US6187343A, “Proceeding for the preparation of the prolonged action granule compound containing 4-nitro-2-phenoxymethanesulfonanilide” (priority 1997, dated 2001).

For this data set the following is noted: in vivo.

Take `CS(=O)(=O)Nc1ccc([N+](=O)[O-])cc1Oc1ccccc1` [NIMESULIDE, 4-nitro-2-phenoxymethanesulfonanilide]: the adverse effects entry is “adverse effects of the digestive type”.
